In patent publication US8883782B2, “Spiro-tetracyclic ring compounds as beta-secretase modulators and methods of use” (Amgen Inc., priority 2010, dated 2014):
pIC50: −log10 of the molar value. Like-named read-outs stand apart in the source and are kept apart here.

How the values were obtained:
[1] = system: Aβ40 in conditioned medium of cells stably expressing Amyloid Precursor Protein (APP); assay: In vitro BACE cell-based assay (Aβ40 in conditioned medium, sandwich ELISA); conditions: Homo sapiens; for pIC50: read-out: HEK cell assay
Outline: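 Secreted Aβ40 is captured with pAb40 and detected with biotinylated 6E10, read by europium time-resolved fluorescence. IC50 comes from percent inhibition versus concentration.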

[2] = target: Beta Secretase enzyme (BACE) (Homo sapiens, UniProt P56817); assay: In vitro enzymatic BACE FRET (fluorescence resonance energy transfer) assay; type: biochemical; conditions: average IC50, enzyme assay; for pIC50: read-out: BACE 1 FRET assay
Chain of Beta Secretase enzyme (BACE) (P56817 46-501, species assumed): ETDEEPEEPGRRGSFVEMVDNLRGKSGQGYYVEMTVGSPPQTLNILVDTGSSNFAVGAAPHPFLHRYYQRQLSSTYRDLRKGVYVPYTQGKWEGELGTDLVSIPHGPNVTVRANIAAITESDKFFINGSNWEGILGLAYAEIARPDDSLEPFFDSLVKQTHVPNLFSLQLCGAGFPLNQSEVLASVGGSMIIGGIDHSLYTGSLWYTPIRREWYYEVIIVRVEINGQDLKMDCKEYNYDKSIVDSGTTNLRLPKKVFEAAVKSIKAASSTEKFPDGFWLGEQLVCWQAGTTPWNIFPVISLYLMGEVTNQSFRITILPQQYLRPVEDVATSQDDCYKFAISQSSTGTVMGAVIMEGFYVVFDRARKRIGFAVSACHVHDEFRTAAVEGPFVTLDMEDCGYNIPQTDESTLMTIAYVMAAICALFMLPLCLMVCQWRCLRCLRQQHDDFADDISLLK
Outline: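 Buffer 0.05 M acetate pH 4.2, 10% DMSO final, 100 uM genapol (sub-CMC); start with 50 nM FRET substrate; 1 h incubation; Tris stop; fluorescence read.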

[3] = HEK293, average IC50, HEK cells

Row | SMILES | pIC50 [1, 3] | pIC50 [2] | pIC50 ([1]; HEK293, average IC50) | IC50 ([1]; HEK293, read-out: HEK cell assay (uM)) | IC50 ([2]; BACE 1 FRET assay (uM))
1 | NC1=N[C@@]2(CS1)c1cc(-c3ccc(F)nc3)ccc1Oc1ncc(Br)cc12 [Example 963, (5S)-3-bromo-7-(6-fluoro-3-pyridinyl)spiro[chromeno[2,3-b]pyridine-5,4′-[1,3]thiazol]-2′-amine] | 6.08 | 7.36 |  |  | 
2 | N#Cc1cccc(-c2ccc3c(c2)[C@@]2(COC(N)=N2)c2cc(N4CCOCC4)cc(F)c2O3)c1 [Example 564, 3-((4S)-2-amino-5′-fluoro-7′-(4-morpholinyl)spiro[1,3-oxazole-4,9′-xanthen]-2′-yl)benzonitrile] | 8.04 | 8.80 |  |  | 
3 | NC1=N[C@@]2(CO1)c1cc(-c3cncc(N4CCOCC4)c3)ccc1Oc1c(F)cc(N3CCOCC3)cc12 [Example 209, (4S)-4′-fluoro-2′-(4-morpholinyl)-7′-(5-(4-morpholinyl)-3-pyridinyl)spiro[1,3-oxazole-4,9′-xanthen]-2-amine] |  | 6.60 | 6.68 |  | 
4 | NC1=N[C@@]2(CO1)c1cc(-c3cncc(F)c3)ccc1Oc1c(F)cc(C3=CCOCC3)cc12 [Example 447, (4S)-2′-(3,6-dihydro-2H-pyran-4-yl)-4′-fluoro-7′-(5-fluoro-3-pyridinyl)spiro[1,3-oxazole-4,9′-xanthen]-2-amine] | 8.29 | 8.96 |  |  | 
5 | CC(C)(C#N)COc1cc(F)c2c(c1)[C@]1(COC(N)=N1)c1cc(-c3cncc(C#N)c3)ccc1O2 [Example 265, 5-((4S)-2-amino-7′-(2-cyano-2-methylpropoxy)-5′-fluorospiro[1,3-oxazole-4,9′-xanthen]-2′-yl)-3-pyridinecarbonitrile] |  | 9.10 | 8.33 |  | 
6 | NC1=N[C@]2(CO1)c1cc(-c3cccnc3F)c(F)cc1Oc1c(F)cc(C3CCOCC3)cc12 [Example 871, (4R)-3′,5′-difluoro-2′-(2-fluoro-3-pyridinyl)-7′-(tetrahydro-2H-pyran-4-yl)spiro[1,3-oxazole-4,9′-xanthen]-2-amine] | 5.19 | 6.75 |  |  | 
7 | NC1=N[C@@]2(CO1)c1cc(C#CC3CC3)ccc1Oc1ncc(N3CCC(F)(F)C3)cc12 [Example 178, (5S)-7-(cyclopropylethynyl)-3-(3,3-difluoro-1-pyrrolidinyl)spiro[chromeno[2,3-b]pyridine-5,4′-[1,3]oxazol]-2′-amine] |  | 8.51 | 7.84 |  | 
8 | NC1=N[C@@]2(CO1)c1cc(-c3cncc(Cl)c3)ccc1Oc1cnc(C3CCOCC3)cc12 [Example 242, (5S)-7-(5-chloro-3-pyridinyl)-3-(tetrahydro-2H-pyran-4-yl)spiro[chromeno[2,3-c]pyridine-5,4′-[1,3]oxazol]-2′-amine] |  | 8.51 | 7.68 |  | 
9 | CC(C)(C)COc1ccc2c(c1)[C@@]1(COC(N)=N1)c1cc(-c3cncnc3)c(F)cc1O2 [Example 511, (4R)-7′-(2,2-dimethylpropoxy)-3′-fluoro-2′-(5-pyrimidinyl)spiro[1,3-oxazole-4,9′-xanthen]-2-amine] | 6.31 | 7.00 |  |  | 
10 | COc1cccc(Nc2ccc3c(c2)[C@@]2(COC(N)=N2)c2cc(C4=CCOCC4)cc(F)c2O3)c1 [Example 197, (4S)-7′-(3,6-dihydro-2H-pyran-4-yl)-5′-fluoro-N~2~′-(3-methoxyphenyl)spiro[1,3-oxazole-4,9′-xanthene]-2,2′-diamine] |  | 7.43 | 6.17 |  | 
11 | NC1=N[C@@]2(CO1)c1cc(-c3cccnc3F)ccc1Oc1cnc([C@@H]3CCCOC3)cc12 [Example 382, (5S)-7-(2-fluoro-3-pyridinyl)-3-((3S)-tetrahydro-2H-pyran-3-yl)spiro[chromeno[2,3-c]pyridine-5,4′-[1,3]oxazol]-2′-amine] |  |  |  | 0.123 µM | 0.0113 µM
12 | Cc1ccc(-c2cnc3c(c2)[C@]2(CSC(N)=N2)c2cc(-c4cccnc4F)ccc2O3)cn1 [Example 582, (5S)-7-(2-fluoro-3-pyridinyl)-3-(6-methyl-3-pyridinyl)spiro[chromeno[2,3-b]pyridine-5,4′-[1,3]thiazol]-2′-amine] | 8.30 | 8.70 |  |  | 
13 | NC1=N[C@@]2(CO1)c1cc(-c3cncc(F)c3)ccc1Oc1cnc([C@@H]3CCCCO3)cc12 [Example 381, (5S)-7-(5-fluoro-3-pyridinyl)-3-((2S)-tetrahydro-2H-pyran-2-yl)spiro[chromeno[2,3-c]pyridine-5,4′-[1,3]oxazol]-2′-amine] |  | 8.14 | 7.20 |  | 
14 | NC1=N[C@@]2(CS1)c1cc(-c3cccnc3F)c(F)cc1Oc1c(F)cc(N3CCOCC3)cc12 [Example 879, (4S)-3′,5′-difluoro-2′-(2-fluoro-3-pyridinyl)-7′-(4-morpholinyl)spiro[1,3-thiazole-4,9′-xanthen]-2-amine] | 7.96 | 9.52 |  |  | 
15 | CC(C)(C#N)COc1cc(F)c2c(c1)[C@]1(COC(N)=N1)c1cc(-c3cncc(Cl)c3)ccc1O2 [Example 204, 3-(((4S)-2-amino-7′-(5-chloro-3-pyridinyl)-4′-fluorospiro[1,3-oxazole-4,9′-xanthen]-2′-yl)oxy)-2,2-dimethylpropanenitrile] |  | 9.30 | 8.35 |  | 
16 | NC1=N[C@@]2(CO1)c1cc(-c3c(F)ccnc3F)ccc1Oc1c(F)cc(-c3ncccn3)cc12 [Example 858, (4S)-7′-(2,4-difluoro-3-pyridinyl)-4′-fluoro-2′-(2-pyrimidinyl)spiro[1,3-oxazole-4,9′-xanthen]-2-amine] | 7.74 | 9.30 |  |  | 
17 | CC1(COc2cc(F)c3c(c2)[C@@]2(CSC(N)=N2)c2cc(-c4cccnc4F)ccc2O3)COC1 [Example 793, (4R)-4′-fluoro-7′-(2-fluoro-3-pyridinyl)-2′-((3-methyl-3-oxetanyl)methoxy)spiro[1,3-thiazole-4,9′-xanthen]-2-amine] |  | 6.75 | 5.32 |  | 
18 | NC1=N[C@]2(CO1)c1cc(-c3cccnc3)ccc1Oc1c2cc(C2=CCOCC2)c(F)c1F (single isomer, unassigned) [Example 1006] |  | 7.82 | 6.20 |  | 
19 | CC1(C#Cc2cnc3c(c2)[C@@]2(COC(N)=N2)c2c(ccc(-c4ccc(F)nc4)c2F)O3)COC1 [Example 343, (5S)-6-fluoro-7-(6-fluoro-3-pyridinyl)-3-((3-methyl-3-oxetanyl)ethynyl)spiro[chromeno[2,3-b]pyridine-5,4′-[1,3]oxazol]-2′-amine] |  | 6.41 | 5.73 |  | 
20 | CC(C)(C#N)COc1cc(F)c2c(c1)[C@@]1(COC(N)=N1)c1cc(-c3cccnc3F)c(F)cc1O2 [Example 863, 3-(((4R)-2-amino-4′,6′-difluoro-7′-(2-fluoro-3-pyridinyl)spiro[1,3-oxazole-4,9′-xanthen]-2′-yl)oxy)-2,2-dimethylpropanenitrile] | 5.63 | 7.10 |  |  | 
21 | COC(C)(C)COc1cnc2c(c1)[C@@]1(COC(N)=N1)c1cc(-c3cccc(C(F)(F)F)c3)ccc1O2 [Example 316, (5R)-3-(2-methoxy-2-methylpropoxy)-7-(3-(trifluoromethyl)phenyl)spiro[chromeno[2,3-b]pyridine-5,4′-[1,3]oxazol]-2′-amine] |  | 6.41 | 5.68 |  | 
22 | CC1(C)C[C@H](c2cnc3c(c2)[C@]2(COC(N)=N2)c2cc(-c4cccnc4F)ccc2O3)CCO1 [Example 453, (5S)-3-((4R)-2,2-dimethyltetrahydro-2H-pyran-4-yl)-7-(2-fluoro-3-pyridinyl)spiro[chromeno[2,3-b]pyridine-5,4′-[1,3]oxazol]-2′-amine] | 7.91 | 8.62 |  |  | 
